Experiments:
Truncated mTOR kinase = target: T1, Truncated mTOR kinase (Homo sapiens, UniProt P42345); test: mTOR Assay (radiometric phosphorylation of 4eBP1); format: biochemical; conditions: 4eBP1 substrate, 10 μM ATP, 1 hour at room temperature
T1 construct: Truncated mTOR kinase and His-tagged 4eBP1 were produced in-house
Experimental: Truncated mTOR kinase and His-tagged 4eBP1 were produced in-house. [γ^33P]-ATP was purchased from Amersham (GE Healthcare). All chemicals, unless otherwise stated, were from Sigma-Aldrich.
Phosphorylation assays were initially performed in a final volume of 20 μL in 384-well polypropylene plate (Greiner). […] The reaction was initiated by adding 10 μL/well of 20 μM ATP solution (final assay concentration 10 μM ATP and 0.4 μCi/well of [γhu 33P]-ATP). After 1 hour incubation at room temperature, the reaction was terminated with 40 μL/well of 20 mM EDTA/1 mM ATP solution.
50 μL/well of the stopped reaction mix was then transferred to 384-well MultiScreenHTS-PH filter plate (Millipore) pre-added with 50 μL/well of 1% phosphoric acid. The plate was washed 4 times with 120 μL/well of 0.5% phosphoric acid via vacuum filtration. Finally, 10 μL/well of Optiphase™ SuperMix liquid scintillation cocktail (Perkin Elmer) was added. After minimum 1 hour of incubation, counting was performed in a Wallac MicroBeta TriLux scintillation counter using coincidence counting mode with crosstalk correction.

[1] = target: T2, Recombinant PI3K p110α/p85 (Homo sapiens, UniProt P42336); test: PI3K Assay (radiometric lipid kinase assay); format: biochemical; conditions: p110α/p85, 2 μM ATP, 1 hour at RT; read-out: IC50 (PI3Kα)
T2 construct: made in house
Experimental: Recombinant PI3K p110α/p85 was prepared in-house. Phosphatidylinositol (PtdIns), phosphotidylserine (PtdSer) and all other unspecified chemicals were purchased from Sigma-Aldrich. [γ^33P]ATP and Optiphase scintillant were obtained from Perkin Elmer.
Assays were performed in a final assay volume of 25 μL in 384-well Maxisorp plates (Nunc). […] Maxisorp plates were coated with 20 μL/well of a 1:1 mixture of PtdIns and PtdSer [0.1 mg/mL each dissolved in chloroform:ethanol (3:7)] and left overnight in a fume hood at room temperature (RT) to dry.
The reaction was incubated for 1 hour at RT and terminated with 30 μL/well of 50 mM EDTA solution. The plate was then washed twice with TBS, dried, and added with 30 μL/well of scintillant before it was counted in a MicroBeta Trilux.

PC3 cells = test: Cell-based proliferation assay, PC3; conditions: Homo sapiens, PC-3, 96 h treatment, Celltiter96 Aqueous One Solution
Experimental: (§1) Human cancer cell lines PC3 and DU145 (human prostate cancer cell lines), were obtained from ATCC. They were cultured in the media according to the ATCC work instructions. PC3 and DU145 cells were seeded at 1,000 cells per well in 96-well plates, respectively. The plates were incubated at 37° C., 5% CO2, for 24 h. Cells were treated with compounds at various concentrations for 96 h. Cell proliferation was then quantified using Celltiter96 Aqueous One Solution Cell Proliferation Assay from Promega (Madison Wis.). Dose response curves were plotted to determine IC50 values for the compounds using XL-fit (ID Business Solution, Emeryville, Calif.).

DU145 cells = test: Cell-based proliferation assay, DU145; conditions: Homo sapiens, DU-145, 96 h treatment, Celltiter96 Aqueous One Solution
Experimental: as §1

human cancer cell lines = conditions: different human cancer cell lines in vitro and xenograft models in vivo; read-out: IC50 (anti-neoplastic activity); cited from earlier work
[2] = tested on: human breast cancer cell lines; conditions: two of eight human breast cancer cell lines, resistant; cited from earlier work

T1 sequence (P42345 2156-2549 limits assumed): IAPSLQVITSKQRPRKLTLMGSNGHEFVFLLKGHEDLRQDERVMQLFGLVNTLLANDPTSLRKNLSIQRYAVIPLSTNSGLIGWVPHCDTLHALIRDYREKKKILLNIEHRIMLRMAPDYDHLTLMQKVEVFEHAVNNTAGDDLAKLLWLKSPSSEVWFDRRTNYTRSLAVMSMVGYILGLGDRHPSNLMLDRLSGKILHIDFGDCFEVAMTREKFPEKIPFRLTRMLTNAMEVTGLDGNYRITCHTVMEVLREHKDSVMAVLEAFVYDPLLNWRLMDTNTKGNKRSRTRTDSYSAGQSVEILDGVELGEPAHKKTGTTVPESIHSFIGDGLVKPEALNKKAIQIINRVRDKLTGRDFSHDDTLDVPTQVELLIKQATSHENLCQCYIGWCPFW
T2 sequence (P42336 whole entry): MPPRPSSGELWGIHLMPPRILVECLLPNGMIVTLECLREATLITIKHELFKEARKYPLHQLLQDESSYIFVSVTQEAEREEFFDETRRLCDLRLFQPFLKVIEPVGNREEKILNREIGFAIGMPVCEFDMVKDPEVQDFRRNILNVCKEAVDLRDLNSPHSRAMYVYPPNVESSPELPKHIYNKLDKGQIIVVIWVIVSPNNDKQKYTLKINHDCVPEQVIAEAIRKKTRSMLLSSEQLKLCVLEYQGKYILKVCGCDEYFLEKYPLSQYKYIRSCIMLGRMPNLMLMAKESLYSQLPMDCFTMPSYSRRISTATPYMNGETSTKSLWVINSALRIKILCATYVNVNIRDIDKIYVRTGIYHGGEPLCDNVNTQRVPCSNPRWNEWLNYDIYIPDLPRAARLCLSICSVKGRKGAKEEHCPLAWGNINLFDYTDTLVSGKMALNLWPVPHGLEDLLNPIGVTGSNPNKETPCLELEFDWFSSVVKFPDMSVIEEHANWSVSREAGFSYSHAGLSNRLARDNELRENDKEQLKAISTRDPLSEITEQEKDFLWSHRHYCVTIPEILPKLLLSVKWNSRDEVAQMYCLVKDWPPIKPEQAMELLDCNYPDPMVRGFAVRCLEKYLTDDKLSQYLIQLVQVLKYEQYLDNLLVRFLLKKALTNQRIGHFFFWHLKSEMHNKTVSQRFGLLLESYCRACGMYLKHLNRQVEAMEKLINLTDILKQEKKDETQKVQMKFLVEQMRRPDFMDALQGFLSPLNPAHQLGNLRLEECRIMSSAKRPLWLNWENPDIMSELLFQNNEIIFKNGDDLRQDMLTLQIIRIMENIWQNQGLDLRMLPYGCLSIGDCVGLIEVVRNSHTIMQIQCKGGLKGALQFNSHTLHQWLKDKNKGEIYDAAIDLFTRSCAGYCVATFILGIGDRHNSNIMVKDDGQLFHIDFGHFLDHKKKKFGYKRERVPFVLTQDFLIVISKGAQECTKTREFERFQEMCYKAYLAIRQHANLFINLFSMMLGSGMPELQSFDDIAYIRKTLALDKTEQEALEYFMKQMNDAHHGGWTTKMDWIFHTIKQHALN
T2 sequence (P27986 whole entry partner): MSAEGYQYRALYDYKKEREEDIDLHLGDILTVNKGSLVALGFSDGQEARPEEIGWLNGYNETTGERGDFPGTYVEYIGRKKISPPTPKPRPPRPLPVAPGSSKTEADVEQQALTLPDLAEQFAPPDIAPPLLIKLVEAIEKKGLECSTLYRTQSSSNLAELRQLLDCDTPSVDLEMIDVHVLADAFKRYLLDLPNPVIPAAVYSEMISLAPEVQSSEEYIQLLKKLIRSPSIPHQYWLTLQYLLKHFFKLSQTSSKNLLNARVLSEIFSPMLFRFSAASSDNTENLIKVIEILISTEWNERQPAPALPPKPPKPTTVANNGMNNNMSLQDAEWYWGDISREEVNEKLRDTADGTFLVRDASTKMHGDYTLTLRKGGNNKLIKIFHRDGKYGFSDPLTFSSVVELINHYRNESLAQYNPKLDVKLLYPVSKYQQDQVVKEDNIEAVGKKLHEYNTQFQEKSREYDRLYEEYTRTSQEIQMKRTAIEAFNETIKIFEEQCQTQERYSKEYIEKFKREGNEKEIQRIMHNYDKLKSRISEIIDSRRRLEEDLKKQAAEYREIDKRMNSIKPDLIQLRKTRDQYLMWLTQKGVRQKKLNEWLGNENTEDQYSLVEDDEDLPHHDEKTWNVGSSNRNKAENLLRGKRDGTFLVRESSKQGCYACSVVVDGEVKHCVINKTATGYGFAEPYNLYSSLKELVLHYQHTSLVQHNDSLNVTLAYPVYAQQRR

SMILES	IC50 (Truncated mTOR kinase)	IC50 [1]	other results
CC(C1CC1)n1cnc2c(-c3cnc(N)nc3)nc(N3CCOCC3)nc21 (stereo not drawn) [Compound 10]	< 1000 nM	< 1000 nM	IC50 (PC3 cells): ≤ 1000 nM
COCC(C)n1cnc2c(-c3cnc(N)nc3)nc(N3CCOCC3)nc21 (stereo not drawn) [Compound 12]	< 1000 nM	< 1000 nM	
Cc1nc(N)ncc1-c1nc(N2CCOCC2)nc2c1ncn2C(C)C1CC1 (stereo not drawn) [Compound 15]	> 5000 nM	< 1000 nM	
COc1nc(N)ncc1-c1nc(N2CCOCC2)nc2c1ncn2C(C)C1CC1 (stereo not drawn) [Compound 11]	1000 to 5000 nM	< 1000 nM	
Nc1ncc(-c2nc(N3CCOCC3)nc3[nH]cnc23)cn1 [Compound 34]	1000 to 5000 nM	< 1000 nM	
CC(C)C(C)n1cnc2c(-c3cnc(N)nc3)nc(N3CCOCC3)nc21 (stereo not drawn) [Compound 22]	< 1000 nM	< 1000 nM	IC50 (PC3 cells): ≤ 1000 nM
Nc1ncc(-c2nc(N3CCOCC3)nc3c2ncn3CC2CC2)cn1 [Compound 3]	< 1000 nM	< 1000 nM	IC50 (DU145 cells): 1000 to 5000 nM
Cc1nc(N)ncc1-c1nc(N2CCOCC2)nc2c1ncn2C(C)c1ccccc1 (stereo not drawn) [Compound 17]	> 5000 nM	< 1000 nM	
Nc1ncc(-c2nc(N3CCOCC3)nc3c2ncn3C2CCCC2)cn1 [Compound 7]	< 1000 nM	< 1000 nM	
CO[C@H]1C[C@@H]2CC[C@@H](C)[C@@](O)(O2)C(=O)C(=O)N2CCCC[C@H]2C(=O)O[C@H]([C@H](C)C[C@@H]2CC[C@@H](OCCO)[C@H](OC)C2)CC(=O)[C@H](C)/C=C(\C)[C@@H](O)[C@@H](OC)C(=O)[C@H](C)C[C@H](C)/C=C/C=C/C=C/1C [RAD001, 40-O-(2-hydroxyethyl)-rapamycin]			IC50 (human cancer cell lines): 5 to 1800 nM
Nc1ncc(-c2nc(N3CCOCC3)nc3c2ncn3-c2ccccc2)cn1 [Compound 38]	< 1000 nM	< 1000 nM	
Cc1ccc(C(=O)N2CCC(n3cnc4c(-c5cnc(N)nc5)nc(N5CCOCC5)nc43)C2)s1 (stereo not drawn) [Compound 33, {3-[6-(2-Amino-pyrimidin-5-yl)-2-morpholin-4-yl-purin-9-yl]-pyrrolidin-1-yl}-(5-methyl-thiophen-2-yl)-methanone]	< 1000 nM	< 1000 nM	
CCC(C)n1cnc2c(-c3cnc(N)nc3)nc(N3CCOCC3C)nc21 (stereo not drawn) [Compound 35]	< 1000 nM		IC50 (PC3 cells): ≤ 1000 nM
CCC(C)n1cnc2c(-c3cncnc3)nc(N3CCOCC3)nc21 (stereo not drawn) [Compound 6]	1000 to 5000 nM	< 1000 nM	
CCCC(=O)N1CCC(n2cnc3c(-c4cnc(N)nc4)nc(N4CCOCC4)nc32)CC1 [Compound 21]	< 1000 nM	< 1000 nM	IC50 (PC3 cells): ≤ 1000 nM
COCC(C)n1cnc2c(-c3cnc(N)nc3OC)nc(N3CCOCC3)nc21 (stereo not drawn) [Compound 13]	1000 to 5000 nM	< 1000 nM	
CC(COC(C)(C)C)n1cnc2c(-c3cnc(N)nc3)nc(N3CCOCC3)nc21 (stereo not drawn) [Compound 5]	1000 to 5000 nM	< 1000 nM	
CCC(C)n1cnc2c(-c3cnc(N)nc3)nc(N3CCOCC3)nc21 (stereo not drawn) [Compound 26]			IC50 (PC3 cells): ≤ 1000 nM
CCC(C)n1cnc2c(-c3cnc(NC)nc3)nc(N3CCOCC3)nc21 (stereo not drawn) [Compound 20]	< 1000 nM	< 1000 nM	
CC(c1ccccc1)n1cnc2c(-c3cnc(N)nc3)nc(N3CCOCC3)nc21 (stereo not drawn) [Compound 9]	1000 to 5000 nM	< 1000 nM	
CCC(C)n1cnc2c(-c3cnc(N)nc3C)nc(N3CCOCC3)nc21 (stereo not drawn) [Compound 14]	> 5000 nM	< 1000 nM	

SMILES	IC50 (Truncated mTOR kinase)	IC50 [1]	other results
Nc1ncc(-c2nc(N3CCOCC3)nc3c2ncn3[C@H]2CCOC2)cn1 [Compound 18]		< 1000 nM	
CCC(C)n1c(Br)nc2c(-c3cnc(N)nc3)nc(N3CCOCC3)nc21 (stereo not drawn) [Compound 42, 5-(8-Bromo-9-sec-butyl-2-morpholin-4-yl-9H-purin-6-yl)-pyrimidin-2-ylamine]			IC50 (PC3 cells): ≤ 1000 nM
Cc1cccc(-n2cnc3c(-c4cnc(N)nc4)nc(N4CCOCC4)nc32)c1 [Compound 27, 5-(2-morpholin-4-yl-9-m-tolyl-9H-purin-6-yl)-pyrimidin-2-yl-amine]	< 1000 nM	< 1000 nM	
Nc1ncc(-c2nc(N3CCOCC3)nc3c2ncn3C2CCOC2)cn1 (stereo not drawn) [Compound 18]	< 1000 nM		IC50 (PC3 cells): ≤ 1000 nM
Nc1ncc(-c2nc(N3CCOCC3)nc3c2ncn3Cc2c(F)cccc2F)cn1 [Compound 1]	1000 to 5000 nM	< 1000 nM	
c1ccc(Cn2cnc3c(-c4cncnc4)nc(N4CCOCC4)nc32)cc1 [Compound 4]	> 5000 nM	< 1000 nM	
COCC(C)n1cnc2c(-c3cnc(N)nc3C)nc(N3CCOCC3)nc21 (stereo not drawn) [Compound 16]	> 5000 nM	< 1000 nM	
CCC(C#N)n1cnc2c(-c3cnc(N)nc3)nc(N3CCOCC3)nc21 (stereo not drawn) [Compound 23]	< 1000 nM	< 1000 nM	IC50 (PC3 cells): ≤ 1000 nM
CCC(CC)n1cnc2c(-c3cnc(N)nc3)nc(N3CCOCC3)nc21 [Compound 24]	< 1000 nM	< 1000 nM	
CO[C@H]1C[C@@H]2CC[C@@H](C)[C@@](O)(O2)C(=O)C(=O)N2CCCC[C@H]2C(=O)O[C@H]([C@H](C)C[C@@H]2CC[C@@H](OC(=O)C(C)(CO)CO)[C@H](OC)C2)CC(=O)[C@H](C)/C=C(\C)[C@@H](O)[C@@H](OC)C(=O)[C@H](C)C[C@H](C)/C=C/C=C/C=C/1C [CCI-779]			IC50 [2]: > 1000 nM
Nc1ncc(-c2nc(N3CCOCC3)nc3c2ncn3C2Cc3ccccc3C2)cn1 [Compound 31]	< 1000 nM	< 1000 nM	
CC[C@@H](C)n1cnc2c(-c3cnc(N)nc3)nc(N3CCOCC3)nc21 [Compound 25]			IC50 (PC3 cells): ≤ 1000 nM
CCC(C)n1cnc2c(-c3cnc(N)nc3)nc(N3CCOC[C@@H]3C)nc21 (stereo partly drawn) [Compound 35]		< 1000 nM	
CC(C)(C)Cn1cnc2c(-c3cnc(N)nc3)nc(N3CCOCC3)nc21 [Compound 29]	< 1000 nM	< 1000 nM	IC50 (PC3 cells): ≤ 1000 nM
Nc1ncc(-c2nc(N3CCOCC3)nc3c2ncn3C2CCc3ccccc3C2)cn1 (stereo not drawn) [Compound 30]	< 1000 nM	< 1000 nM	
CC1CCC(n2cnc3c(-c4cnc(N)nc4)nc(N4CCOCC4)nc32)C1 (mixture of isomers) [Compound 37]	< 1000 nM	< 1000 nM	IC50 (PC3 cells): ≤ 1000 nM
CC(C)(C)OC(=O)N1CCC(n2cnc3c(-c4cnc(N)nc4)nc(N4CCOCC4)nc32)CC1 [Compound 19]	< 1000 nM	< 1000 nM	IC50 (PC3 cells): ≤ 1000 nM
Nc1ncc(-c2nc(N3CCOCC3)nc3c2ncn3C2CCNC2)cn1 (stereo not drawn) [Compound 28]	1000 to 5000 nM		
CCC(C)n1cnc2c(-c3cnc(N)nc3OC)nc(N3CCOCC3)nc21 (stereo not drawn) [Compound 8]	< 1000 nM	< 1000 nM	
Nc1ncc(-c2nc(N3CCOCC3)nc3c2ncn3C2CCN(C(=O)c3ccccc3)C2)cn1 (stereo not drawn) [Compound 32]	< 1000 nM	< 1000 nM	
CC1CCC(n2cnc3c(-c4cnc(N)nc4)nc(N4CCOCC4)nc32)CC1 (stereo not drawn) [Compound 36]	< 1000 nM	< 1000 nM	
